Laboratory results from paper PMC12691689, “Bacteria export alarmone synthetases that produce (p)ppApp and (p)ppGpp” (mBio, 2025).

Experiments:
Type in all cases: biochemical
[1] = biological target: T1, SaEAS (SaEAS-FLAG, secreted SaEASΔSP-FLAG) (Streptomyces albidoflavus, UniProt A0AA37FDV0); assay: anion-exchange chromatography, competition of PPi acceptors, Km from calculated acceptor-site occupancy; conditions: 5 mM ATP, 5 mM free MgCl2, 0.1 mM MnCl2, pH 7.5, 37 °C
T1 construct: gene ScoT_12220; full-length gene with FLAG tag overexpressed (ermE* promoter) in S. albidoflavus SM254 delta-SaEAS; signal peptide cleaved on secretion; diluted spent medium used without purification
Excerpt: anion-exchange chromatography, competition of PPi acceptors, Km from calculated acceptor-site occupancy on SaEAS (SaEAS-FLAG, secreted SaEASΔSP-FLAG) | we then calculated the acceptor-site occupancy and Km for the non-ATP substrate

[2] = biological target: T1, SaEAS (SaEAS-FLAG, secreted SaEASΔSP-FLAG); assay: anion-exchange chromatography, initial velocity of pppGpp synthesis; conditions: ATP as PPi donor; 5 mM GTP acceptor, 0.03-1 mM ATP, 5 mM free MgCl2, 0.1 mM MnCl2, pH 7.5, 37 °C, PK/PEP
[3] = biological target: T1, SaEAS (SaEAS-FLAG, secreted SaEASΔSP-FLAG); assay: anion-exchange chromatography, initial velocity of pppApp synthesis; conditions: ATP as PPi acceptor (second site); 0.5-10 mM ATP as donor and acceptor, 5 mM free MgCl2, 0.1 mM MnCl2, pH 7.5, 37 °C
Excerpt: anion-exchange chromatography, initial velocity of pppApp synthesis on SaEAS (SaEAS-FLAG, secreted SaEASΔSP-FLAG) | the Michaelis-Menten relationship provides the Km for ATP as a PPi acceptor

VpEAS = biological target: T2, VpEAS (Vibrio parahaemolyticus, UniProt Q87Q55); assay: anion-exchange chromatography of lysate reaction, pppGpp-2S formation; conditions: 5 mM ATPγS, 1 mM GTPγS, 10 mM MgCl2, 0.1 mM MnCl2, pH 7.5, 37 °C, 5 min
T2 construct: gene VP1295; recombinant from pET29b in E. coli BL21(DE3), cleared lysate

[4] = biological target: T1, SaEAS (SaEAS-FLAG, secreted SaEASΔSP-FLAG); assay: anion-exchange chromatography, competition of PPi acceptors, Km derived from Vmax and Vmax/Km; conditions: PPi acceptor; ATP donor, 5 mM free MgCl2, 0.1 mM MnCl2, pH 7.5, 37 °C; read-out: Km, acceptor(GTP)
Excerpt: anion-exchange chromatography, competition of PPi acceptors, Km derived from Vmax and Vmax/Km on SaEAS (SaEAS-FLAG, secreted SaEASΔSP-FLAG) | We next used Vmax(pppGpp) to calculate Km, acceptor(GTP).

T1 sequence (A0AA37FDV0 entry or part of it, stated change not applied): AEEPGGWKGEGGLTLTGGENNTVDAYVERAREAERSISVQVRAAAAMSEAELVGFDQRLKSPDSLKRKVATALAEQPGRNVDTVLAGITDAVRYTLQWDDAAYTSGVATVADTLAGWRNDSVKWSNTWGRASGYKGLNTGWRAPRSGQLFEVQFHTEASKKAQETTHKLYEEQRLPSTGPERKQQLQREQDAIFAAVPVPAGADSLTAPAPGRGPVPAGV
T2 sequence (Q87Q55 entry or part of it): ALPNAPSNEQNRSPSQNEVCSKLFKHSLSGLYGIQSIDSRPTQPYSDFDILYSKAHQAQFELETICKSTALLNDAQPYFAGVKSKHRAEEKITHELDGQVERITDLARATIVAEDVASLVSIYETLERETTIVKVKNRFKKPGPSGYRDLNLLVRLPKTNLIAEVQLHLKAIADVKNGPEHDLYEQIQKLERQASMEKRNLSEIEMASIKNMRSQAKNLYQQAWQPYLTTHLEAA

Nc1nc2c(ncn2[C@@H]2O[C@H](COP(=O)(O)O)[C@@H](O)[C@H]2O)c(=O)[nH]1 [GMP]
Km ([1]; 0.5 mM GMP): 64 ± 3 µM

Nc1ncnc2c1ncn2[C@@H]1O[C@H](COP(=O)(O)OP(=O)(O)OP(=O)(O)O)[C@@H](O)[C@H]1O [ATP]
Km [2]: 82 µM
Km, aceptor(ATP) [3]: 1400 µM

Nc1ncnc2c1ncn2[C@@H]1O[C@H](COP(=O)(O)O)[C@@H](O)[C@H]1O [AMP]
Km ([1]; 5 mM AMP): 2200 ± 200 µM

Nc1ncnc2c1ncn2[C@@H]1O[C@H](COP(=O)(O)OP(=O)(O)OP(O)(O)=S)[C@@H](O)[C@H]1O [ATPγS]
anion-exchange chromatography of lysate reaction, pppGpp-2S formation (VpEAS; PPi donor): Reactions were carried out using the non-hydrolyzable thiophosphates ATPγS and GTPγS

Nc1nc2c(ncn2[C@@H]2O[C@H](COP(=O)(O)OP(=O)(O)OP(O)(O)=S)[C@@H](O)[C@H]2O)c(=O)[nH]1 [GTPγS]
anion-exchange chromatography of lysate reaction, pppGpp-2S formation (VpEAS; PPi acceptor): VpEAS specifically uses GTPγS as an acceptor nucleotide to produce pppGpp-2S

Nc1nc2c(ncn2[C@@H]2O[C@H](COP(=O)(O)OP(=O)(O)OP(=O)(O)O)[C@@H](O)[C@H]2O)c(=O)[nH]1 [GTP]
Km [4]: 50 ± 4 µM

Nc1ncnc2c1ncn2[C@@H]1O[C@H](COP(=O)(O)OP(=O)(O)O)[C@@H](O)[C@H]1O [ADP]
Km ([1]; 5 mM ADP): 930 ± 40 µM
